Experimental findings from patent publication US20250144066A1, “Prevention and Treatment of Parasitic Infections” (priority 2017, published 2025) are described below.

Data set [1] has as its system Zika Virus. The data set can be described thus: Zika prevention, CPE inhibition (Neutral Red), Huh7, 4 h pre-incubation (Zika-138). Format: cell-based. Conditions: Neutral Red (Cytopathic effect), pre-incubated 4 hours prior to infection.
Data set [2] relates to Zika Virus. The data set can be described thus: Zika prevention, virus yield reduction (VYR), Huh7, 4 h pre-incubation (Zika-138). Format: cell-based. The note with it: Visual (Virus yield reduction); Huh7; pre-incubated 4 hours prior to infection. How it is done:
(§1) An experiment was carried out as specified in Example 8. In a Zika Prevention Trial, MPA was pre-incubated with human cells 4 hours or 24 hours before Zika virus infection.

The test system of data set [3] is Zika Virus. In words: Zika prevention, CPE inhibition (Neutral Red), Huh7, 24 h pre-incubation (Zika-138). The format is cell-based. The note with it: Neutral Red (Cytopathic effect), pre-incubated 24 hours prior to infection. A general note: Cytopathic effects are the visible damage that an infection or toxin causes in cultured cells.
Data set [4] has as its system Zika Virus. In words: Zika prevention, virus yield reduction (VYR), Huh7, 24 h pre-incubation (Zika-138). Format: cell-based. The note with it: Visual (Virus yield reduction); Huh7; pre-incubated 24 hours prior to infection. How it is done:
as §1

Data set [5] concerns Zika Virus. In words: Zika prevention, CPE inhibition (Neutral Red), Vero 76, 4 h pre-incubation (Zika-138). Format: cell-based. Conditions: Neutral Red (Cytopathic effect), pre-incubated 4 hours prior to infection.
The test system of data set [6] is Zika Virus. The data set can be described thus: Zika prevention, virus yield reduction (VYR), Vero 76, 4 h pre-incubation (Zika-138). Format: cell-based. The note with it: Visual (Virus yield reduction), pre-incubated 4 hours prior to infection.
Data set [7] relates to Zika Virus. The data set can be described thus: Zika prevention, CPE inhibition (Neutral Red), Vero 76, 24 h pre-incubation (Zika-138). The format is cell-based. The note with it: Neutral Red (Cytopathic effect), pre-incubated 24 hours prior to infection.
Data set [8] deals with Zika Virus. The data set can be described thus: Zika prevention, virus yield reduction (VYR), Vero 76, 24 h pre-incubation (Zika-138). Format: cell-based. Conditions: Visual (Virus yield reduction), pre-incubated 24 hours prior to infection.
For data set [9], the system named is Vero 76.
The test system of data set [10] is Vero 76. The source holds these as a separate data set.
Data set [11] relates to Influenza A virus H1N1 California/07/2009. In words: microbe, parasite or virus in culture. The format is cell-based.
Data set [12] deals with Respiratory syncytial virus A2. In words: microbe, parasite or virus in culture. The format is cell-based.
The subject of a further data set is Lassa fever virus Josiah. The data set can be described thus: organism not typed. Format: cell-based. Conditions: Vero.
Data set [13] deals with Rift Valley fever virus MP-12. The data set can be described thus: microbe, parasite or virus in culture. Format: cell-based.
Data set [14] in a line: in vitro. Conditions: dog.
Data set [15] in a line: in vitro. The note with it: African green monkey.
Data set [16] in a line: in vitro. Conditions: African green monkey. The source holds these as a separate data set.
A short description of data set [17]: Cell Titer-Glo toxicity in C-33A cells (HPV16-15). The note with it: human, C-33A cells.
In another data set the test system is Adenovirus5 Adenoid75. In words: Adenovirus 5 CPE inhibition, A549 (ADV-0172). The note with it: A549. The format is cell-based.
The subject of the next data set is A549. The data set can be described thus: Toxicity in A549 cells (ADV-0172). Format: cell-based.
The subject of data set [18] is influenza A/California/04/2009 (H1N1pdm). The data set can be described thus: Mycophenolate mofetil in influenza-infected mice on standard or low nucleotide diet (Example 19). Format: in vivo, C57BL/6 mice. The note with it: for Mean Day of Death (MDD) vs placebo: standard diet.
Data set [19] shares this test system. The data set can be described thus: Oseltamivir with control or low guanosine diet in influenza-infected mice (Example 15). Conditions: oseltamivir IP, BID for five days from four hours pre-infection. Format: in vivo, C57BL/6 mice.
For data set [20], the system named is Zika Virus. The data set can be described thus: Zika virus cytopathic effect (CPE) inhibition, Vero 76, primary screen (Zika-089). Format: cell-based. The note with it: Zika virus, MR766, Vero 76, primary.
Data set [21] relates to Zika Virus. The data set can be described thus: Zika virus CPE inhibition (Neutral Red), Vero 76, secondary (Zika-094). Format: cell-based. Conditions: Neutral Red (Cytopathic effect), MR766.
The test system of data set [22] is Zika Virus. The data set can be described thus: Zika virus yield reduction (VYR), Vero 76, secondary (Zika-094). Conditions: Visual (Virus yield reduction), MR766. Format: cell-based.
For data set [23], the system named is Zika Virus. In words: Zika virus CPE inhibition (Neutral Red), Huh7, secondary (Zika-094). Format: cell-based. The note with it: Huh-7, Neutral Red (Cytopathic effect), MR766, Huh7, secondary, read-out: EC50.
Data set [24] has as its system Zika Virus. In words: Zika virus yield reduction (VYR), Huh7, secondary (Zika-094). Format: cell-based. Conditions: Huh-7, Visual (Virus yield reduction), MR766.
A short description of data set [25]: Toxicity in Vero 76 cells, primary screen (Zika-089). The note with it: monkey, Vero 76 cells.
Data set [26] can be described thus: Neutral Red toxicity in Huh7 cells, secondary (Zika-094). The note with it: human.
The nature of data set [27]: Neutral Red toxicity in Vero 76 cells, secondary (Zika-094). Conditions: monkey, Vero 76 cells.
The test system of data set [28] is human norovirus (NV, GT1). The data set can be described thus: Human norovirus replicon, RNA Hybridization, HG23, primary (16-21). Format: cell-based. The note with it: RNA Hybridization (Replicon), NV GT1, HG23. The text has this:
(§2) Secondary testing was done with human norovirus.

Data set [29] deals with HG23. The data set can be described thus: RNA Hybridization toxicity in HG23 cells (16-21). Format: cell-based.
Description: as §2

In another data set the test system is mouse norovirus (MNV-1). The data set can be described thus: Mouse norovirus CPE inhibition (NR), RAW264.7 (17-09). The format is cell-based.
Data set [30] has as its system human norovirus (NV, GT1). The data set can be described thus: Human norovirus replicon, qPCR, HG23, secondary (17-14). Format: cell-based.
Description: as §2
Background: A replicon is a self-replicating genome or part of one, used to study replication in cells.

In data set [31] the test system is HG23. The data set can be described thus: NR toxicity in HG23 cells (17-14). Conditions: NR (Tox). The format is cell-based.
Description: as §2

Converted amounts (≈) assume the structure as drawn. “Also recorded” adds a separate entry of the source. Read-outs that look alike come from different tables or passages of the source.

What is called EC50 is the concentration giving half of the maximal effect. The EC90 is the concentration needed for an effect of 90%. `C#C[C@@]1(O)[C@H](O)[C@@H](CO)O[C@H]1n1ccc2c(N)ncnc21` [NITD008]: the half-maximal effective concentration (EC50) with Zika Virus [1] came to 1.1 µg/mL (≈ 3.79 µM); with Zika Virus [3], 0.77 µg/mL (≈ 2.65 µM); in the data set on Zika Virus [5], 8.3 µg/mL (≈ 28.6 µM); with Zika Virus [7] it was 5.1 µg/mL (≈ 17.6 µM). Moreover, the 90% effect concentration (EC90) in the data set with Zika Virus [2] is 0.61 µg/mL (≈ 2.1 µM); with Zika Virus [4], 1.0 µg/mL (≈ 3.44 µM); in the data set with Zika Virus [6], 7.81 µg/mL (≈ 26.9 µM); with Zika Virus [8] it was 31.62 µg/mL (≈ 109 µM). Besides, the CC50 in the data set on Vero 76 [9] and with Vero 76 [10] was more than 100 µg/mL each time.

As for `NC(=O)c1ncn([C@@H]2O[C@H](CO)[C@@H](O)[C@H]2O)n1` [Ribavirin], the 50% effective concentration (EC50) in data set [11] was determined as 4.1 µM; in [11] (Influenza A virus, H1N1, MDCK) it was 3.7 µM; in [12], 12 µg/mL (≈ 49.1 µM); in data set [12] (human respiratory syncytial virus, MA104), 7.6 µg/mL (≈ 31.1 µM); in the data set with Lassa fever virus Josiah, 32 µM; in [13], 12 µg/mL (≈ 49.1 µM). Besides, the EC50 in data set [13] (Rift Valley fever virus, Vero 76) came out at 11 µg/mL (≈ 45 µM). For the same molecule, the CC50 was more than 320 µM in “in vitro [14]”, more than 100 µM in “in vitro [15]” and more than 1000 µg/mL in “in vitro [16]”.

In data set [17], `Nc1nc2c(ncn2CCOCP(=O)(O)O)c(=O)[nH]1` [9-[2-(phosphonomethoxy)ethyl]guanine] returned a CC50 of 141 µM.

Take `Nc1ccn([C@H]2CC[C@@H](CO)O2)c(=O)n1` [2,3-Dideoxycytidine]: the EC50 in the data set with Adenovirus5 Adenoid75 (Neutral Red (Cytopathic effect)) and in the data set on Adenovirus5 Adenoid75 (Visual (Cytopathic effect)) was 3.2 µg/mL (≈ 15.2 µM) throughout. The CC50 in the data set on A549 (Neutral Red (Toxicity)) and with A549 (Visual (Toxicity)) was more than 100 µg/mL each time.

On to `COc1c(C)c2c(c(O)c1C/C=C(\C)CCC(=O)OCCN1CCOCC1)C(=O)OC2` [MMF, 2-morpholinoethyl ester of mycophenolic acid], for which, in data set [18] (low nucleotide diet, MMF 4 mg/kg/day bid for 6 days beginning 4 h pre-infection), the “protection (survival) vs placebo” value is recorded as “significant (P<0.05) protection; also recorded: improved survival outcome”. For the same molecule, the “Mean Day of Death (MDD) vs placebo” value in data set [18] (MMF 4 mg/kg/day PO bid for 6 days) and in [18] (MMF 40 mg/kg/day PO bid for 6 days) was “significantly (P<0.05) increased” in each case.

Take `CCOC(=O)C1=C[C@@H](OC(CC)CC)[C@H](NC(C)=O)[C@@H](N)C1` [Oseltamivir, oseltamivir]: the “survival at 21 days post-infection” value in data set [19] (Group A, control diet (Harlan mouse lab diet)) worked out at 40%; in [19] (Group B, low guanosine diet (Purina Mills #5755)), 100%.

On to `O=c1cnn([C@@H]2O[C@H](CO)[C@@H](O)[C@H]2O)c(=O)[nH]1` [6-Azauridine], for which the half-maximal effective concentration (EC50) stood at 0.35 µg/mL (≈ 1.43 µM) in the data set with Zika Virus [20] (Vero 76, Neutral Red (Cytopathic effect)); 0.32 µg/mL (≈ 1.31 µM) in the data set on Zika Virus [20] (Vero 76, Visual (Cytopathic effect)); 0.37 µg/mL (≈ 1.51 µM) in the data set with Zika Virus [21]; 1.2 µg/mL (≈ 4.89 µM) with Zika Virus [23]. For the same molecule, the results for the 90% effect concentration (EC90) in the data set on Zika Virus [22] and in the data set with Zika Virus [24] were 1.3 µg/mL (≈ 5.3 µM) and 27.4 µg/mL (≈ 112 µM), respectively. The CC50 in data set [25] (CC50, Neutral Red (Toxicity)) is 83.3 µg/mL (≈ 340 µM); in [25] (CC50, Visual (Toxicity)) it was more than 100 µg/mL; in [26], more than 100 µg/mL; in [27], 9.9 µg/mL (≈ 40.4 µM).

On to `C[C@@]1(O)[C@H](O)[C@@H](CO)O[C@H]1n1ccc(N)nc1=O` [2′C-methyl cytidine], for which the concentration giving a half-maximal response (EC50) in [28] (read-out: EC50) was 6.6 µM; with mouse norovirus (MNV-1), 1 µM; in data set [30], 6 µM. Moreover, the EC90 in data set [28] (read-out: EC90) is 17 µM; in the data set on mouse norovirus (MNV-1) it was 3.2 µM; in data set [30] it was 18 µM. The figures for the CC50 in the data set with HG23 [29], with HG23 [31] and with RAW264.7 were more than 300 µM, more than 300 µM and 51 µM, respectively.
